Experiment [1] has as its target T1, off-target kinases (Homo sapiens, UniProt P51955).
T1 sequence (P51955 1-445): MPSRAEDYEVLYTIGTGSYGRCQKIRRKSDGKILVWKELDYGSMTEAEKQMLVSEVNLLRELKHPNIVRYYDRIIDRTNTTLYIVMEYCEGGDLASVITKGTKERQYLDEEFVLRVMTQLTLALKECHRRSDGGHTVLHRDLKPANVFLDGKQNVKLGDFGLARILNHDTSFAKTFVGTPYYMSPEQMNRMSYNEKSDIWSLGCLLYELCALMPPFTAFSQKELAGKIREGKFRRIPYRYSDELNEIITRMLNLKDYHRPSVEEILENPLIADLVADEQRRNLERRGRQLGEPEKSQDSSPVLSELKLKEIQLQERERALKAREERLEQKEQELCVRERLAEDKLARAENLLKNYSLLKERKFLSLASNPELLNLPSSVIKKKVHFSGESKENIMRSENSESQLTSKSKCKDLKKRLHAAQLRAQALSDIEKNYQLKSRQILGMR
As to the kind of experiment: SelectScreen Kinase Profiling, single point inhibition and IC50 for off-target kinases. In kind it is biochemical. The settings on record: NEK2, ZLYTE, ATP Km app.

The target in experiment [2] is T2, off-target kinases (Homo sapiens, UniProt Q16832, T654M).
T2 sequence (Q16832 22-855 T654M): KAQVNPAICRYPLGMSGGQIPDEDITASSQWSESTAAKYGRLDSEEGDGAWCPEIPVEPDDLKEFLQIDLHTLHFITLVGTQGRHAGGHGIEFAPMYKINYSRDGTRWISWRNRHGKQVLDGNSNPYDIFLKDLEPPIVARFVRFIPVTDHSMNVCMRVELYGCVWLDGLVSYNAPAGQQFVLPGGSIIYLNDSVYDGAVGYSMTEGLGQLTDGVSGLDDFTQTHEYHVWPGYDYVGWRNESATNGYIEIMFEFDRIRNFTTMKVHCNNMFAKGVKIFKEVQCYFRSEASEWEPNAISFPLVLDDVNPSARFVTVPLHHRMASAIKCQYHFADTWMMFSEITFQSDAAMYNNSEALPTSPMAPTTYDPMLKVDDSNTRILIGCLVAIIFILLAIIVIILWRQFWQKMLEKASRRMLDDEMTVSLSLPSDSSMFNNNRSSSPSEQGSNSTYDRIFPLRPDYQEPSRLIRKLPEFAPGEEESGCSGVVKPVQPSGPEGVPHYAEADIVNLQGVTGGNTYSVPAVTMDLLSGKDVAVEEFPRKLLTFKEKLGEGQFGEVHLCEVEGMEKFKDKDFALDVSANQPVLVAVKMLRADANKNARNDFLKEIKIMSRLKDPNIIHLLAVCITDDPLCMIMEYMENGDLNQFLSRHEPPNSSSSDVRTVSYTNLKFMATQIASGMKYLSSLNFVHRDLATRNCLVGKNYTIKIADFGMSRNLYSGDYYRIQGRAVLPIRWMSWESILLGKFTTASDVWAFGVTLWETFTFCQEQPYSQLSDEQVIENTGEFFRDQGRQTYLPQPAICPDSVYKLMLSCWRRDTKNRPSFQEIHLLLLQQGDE
Described as above. It is filed as biochemical. The settings on record: DDR2 T654M, LanthaScreen Binding. A general note: Time-resolved FRET reads energy transfer from a long-lived donor to a nearby acceptor.

Like-named read-outs stand apart in the source and are kept apart here.

As a reminder, the inhibition is how much of the control response was suppressed. In the case of `N#Cc1cc(-c2ncnc(Nc3ccc(N4CCN(C5COC5)CC4)cc3)n2)ccc1OC1CCOCC1` [Compound 1, 5-(4-((4-(4-(oxetan-3-yl)piperazin-1-yl)phenyl)amino)-1,3,5-triazin-2-yl)-2-((tetrahydro-2H-pyran-4-yl)oxy)benzonitrile], the inhibition at off-target kinases [1] (read-out: % Inhibition 1) is 29%; at off-target kinases [1] (read-out: % Inhibition 2), 30%; at off-target kinases [1] (read-out: % Inhibition Avg) it was 30%; at off-target kinases [2] (read-out: % Inhibition 1), 56%; at off-target kinases [2] (read-out: % Inhibition 2) it was 57%; at off-target kinases [2] (read-out: % Inhibition Avg) it was 57%.

Source of the values: US11572590B2, “Methods for evaluating tumor cell spheroids using 3D microfluidic cell culture device” (Dana-Farber Cancer Institute, Inc., priority 2017, dated 2023).
